Data on 19 compounds can be found in patent publication US8999957B2, “Heterocyclic compounds as ERK inhibitors” (Merck Sharp & Dohme Corp., priority 2010, dated 2015).

pIC50: −log10 of the molar value. Where two headings read alike, the source gives them in different places.

The target of this test is fully phosphorylated, mouse aERK2 enzyme (Mus musculus (Mouse), UniProt P63085). The experiment in a line: Active ERK2 (aERK) IMAP-FP assay, condition 2. In kind it is biochemical. The method in brief:
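Phosphorylation by fully phosphorylated mouse ERK2 ran 40-45 min, then quenched with IMAP beads (1:1000) in binding buffer; fluorescence polarization read after 30 min binding equilibration.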

Where [1] appears, read: active ERK2, read-out: aErk2 Ic50.
Where [2] appears, read: aERK assay condition 2, 30 uM ATP, read-out: aERK IC50.

Sequence of fully phosphorylated, mouse aERK2 enzyme (P63085 whole entry): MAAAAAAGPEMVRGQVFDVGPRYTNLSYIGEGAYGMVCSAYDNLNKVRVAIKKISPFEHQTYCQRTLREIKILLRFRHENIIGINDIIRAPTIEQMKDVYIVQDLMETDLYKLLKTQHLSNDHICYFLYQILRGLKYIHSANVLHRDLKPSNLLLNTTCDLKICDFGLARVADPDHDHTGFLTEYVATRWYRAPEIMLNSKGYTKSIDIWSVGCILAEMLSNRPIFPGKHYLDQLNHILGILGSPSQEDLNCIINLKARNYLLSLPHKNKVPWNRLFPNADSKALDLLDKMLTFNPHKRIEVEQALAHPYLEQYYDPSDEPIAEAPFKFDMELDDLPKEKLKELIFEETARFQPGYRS

Turning to `COc1cccc(F)c1CN1C[C@H](NC(=O)c2ccc3[nH]nc(-c4ccnc(C)c4)c3c2)CC[C@H]1C(N)=O` [N-[(3R,6S)-6-carbamoyl-1-(2-fluoro-6-methoxybenzyl)piperidin-3-yl]-3-(2-methylpyridin-4-yl)-1H-indazole-5-carboxamide], under setting [1], the pIC50 was 9.00.

In the case of `COc1cccc(F)c1CN1C[C@H](NC(=O)c2ccc3[nH]nc(-c4ccncc4)c3c2)CC[C@H]1C(N)=O` [N-[(3R,6S)-6-carbamoyl-1-(2-fluoro-6-methoxybenzyl)piperidin-3-yl]-3-pyridin-4-yl-1H-indazole-5-carboxamide], the pIC50 under setting [1] was 8.77.

As for `COc1cccc(F)c1CN1C[C@H](NC(=O)c2ccc3[nH]nc(-c4ccnc(C)c4)c3c2)CC[C@H]1C(=O)NCCOCc1ccccc1` [N-[(3R,6S)-6-{[2-(benzyloxy)ethyl]-carbamoyl}-1-(2-fluoro-6-methoxybenzyl)-piperidin-3-yl]-3-(2-methylpyridin-4-yl)-1H-indazole-5-carboxamide], the pIC50 under setting [1] is 6.92.

On to `CCNC(=O)N1CCN(C(=O)[C@@H]2CC[C@@H](NC(=O)c3ccc4[nH]nc(-c5ccnc(C)c5)c4c3)CN2Cc2c(F)cccc2OC)CC1` [N-[(3R,6S)-6-{[4-(ethylcarbamoyl)piperazin-1-yl]carbonyl}-1-(2-fluoro-6-methoxy-benzyl)piperidin-3-yl]-3-(2-methylpyridin-4-yl)-1H-indazole-5-carboxamide], for which the pIC50 under setting [1] is 7.79.

On to `COc1cccc(F)c1CN1C[C@H](NC(=O)c2ccc3[nH]nc(-c4ccnc(C)c4)c3c2)CC[C@H]1C(=O)NC1(C)CC1` [N-{(3R,6S)-1-(2-fluoro-6-methoxybenzyl)-6-[(1-methylcyclopropyl)carbamoyl]piperidin-3-yl}-3-(2-methylpyridin-4-yl)-1H-indazole-5-carboxamide], for which the pIC50 under setting [2] is 8.33.

As to `COc1cccc(F)c1CN1C[C@H](NC(=O)c2ccc3[nH]nc(-c4ccnc(C)c4)c3c2)CC[C@H]1C(=O)NC(C)C` [N-{(3R,6S)-1-(2-fluoro-6-methoxybenzyl)-6-[(1-methylethyl)carbamoyl]piperidin-3-yl}-3-(2-methylpyridin-4-yl)-1H-indazole-5-carboxamide], the negative-log IC50 (pIC50) under setting [1] was 7.33.

As to `COc1cccc(F)c1CN1C[C@H](NC(=O)c2ccc3[nH]nc(-c4ccnc(C)c4)c3c2)CC[C@H]1C(=O)NCC(F)(F)F` [N-{(3R,6S)-1-(2-fluoro-6-methoxybenzyl)-6-[(2,2,2-trifluoroethyl)carbamoyl]piperidin-3-yl}-3-(2-methylpyridin-4-yl)-1H-indazole-5-carboxamide], the pIC50 under setting [1] was 7.33.

Regarding `COc1cccc(F)c1CN1C[C@H](NC(=O)c2ccc3[nH]nc(-c4ccnc(C)c4)c3c2)CC[C@H]1C(=O)NCCO` [N-{(3R,6S)-1-(2-fluoro-6-methoxybenzyl)-6-[(2-hydroxyethyl)carbamoyl]piperidin-3-yl}-3-(2-methylpyridin-4-yl)-1H-indazole-5-carboxamide], the pIC50 under setting [1] was 8.25.

For `COCCNC(=O)[C@@H]1CC[C@@H](NC(=O)c2ccc3[nH]nc(-c4ccnc(C)c4)c3c2)CN1Cc1c(F)cccc1OC` [N-{(3R,6S)-1-(2-fluoro-6-methoxybenzyl)-6-[(2-methoxyethyl)carbamoyl]piperidin-3-yl}-3-(2-methylpyridin-4-yl)-1H-indazole-5-carboxamide], the pIC50 under setting [1] is 7.25.

Turning to `COc1ccc(NC(=O)[C@@H]2CC[C@@H](NC(=O)c3ccc4[nH]nc(-c5ccnc(C)c5)c4c3)CN2Cc2c(F)cccc2OC)cc1F` [N-{(3R,6S)-1-(2-fluoro-6-methoxybenzyl)-6-[(3-fluoro-4-methoxyphenyl)carbamoyl]piperidin-3-yl}-3-(2-methylpyridin-4-yl)-1H-indazole-5-carboxamide], the pIC50 under setting [2] was 7.78.

Turning to `COc1cccc(F)c1CN1C[C@H](NC(=O)c2ccc3[nH]nc(-c4ccnc(C)c4)c3c2)CC[C@H]1C(=O)Nc1cccc(F)c1` [N-{(3R,6S)-1-(2-fluoro-6-methoxybenzyl)-6-[(3-fluorophenyl)carbamoyl]piperidin-3-yl}-3-(2-methylpyridin-4-yl)-1H-indazole-5-carboxamide], the pIC50 under setting [2] was 7.82.

Take `COc1cccc(F)c1CN1C[C@H](NC(=O)c2ccc3[nH]nc(-c4ccnc(C)c4)c3c2)CC[C@H]1C(=O)N1CC(C)(O)C1` [N-{(3R,6S)-1-(2-fluoro-6-methoxybenzyl)-6-[(3-hydroxy-3-methylazetidin-1-yl)carbonyl]piperidin-3-yl}-3-(2-methylpyridin-4-yl)-1H-indazole-5-carboxamide]: the pIC50 under setting [2] was 8.96.

In the case of `COc1cccc(F)c1CN1C[C@H](NC(=O)c2ccc3[nH]nc(-c4ccnc(C)c4)c3c2)CC[C@H]1C(=O)Nc1ccc(F)cc1` [N-{(3R,6S)-1-(2-fluoro-6-methoxybenzyl)-6-[(4-fluorophenyl)carbamoyl]piperidin-3-yl}-3-(2-methylpyridin-4-yl)-1H-indazole-5-carboxamide], the pIC50 under setting [2] was 7.63.

Regarding `COc1ccc(N(C)C(=O)[C@@H]2CC[C@@H](NC(=O)c3ccc4[nH]nc(-c5ccnc(C)c5)c4c3)CN2Cc2c(F)cccc2OC)cc1` [N-{(3R,6S)-1-(2-fluoro-6-methoxybenzyl)-6-[(4-methoxyphenyl)(methyl)carbamoyl]piperidin-3-yl}-3-(2-methylpyridin-4-yl)-1H-indazole-5-carboxamide], under setting [2], the pIC50 is 8.24.

For the compound `COc1ccc(NC(=O)[C@@H]2CC[C@@H](NC(=O)c3ccc4[nH]nc(-c5ccnc(C)c5)c4c3)CN2Cc2c(F)cccc2OC)cc1` [N-{(3R,6S)-1-(2-fluoro-6-methoxybenzyl)-6-[(4-methoxyphenyl)carbamoyl]piperidin-3-yl}-3-(2-methylpyridin-4-yl)-1H-indazole-5-carboxamide], the pIC50 under setting [2] was 7.94.

As to `COc1ccnc(NC(=O)[C@@H]2CC[C@@H](NC(=O)c3ccc4[nH]nc(-c5ccnc(C)c5)c4c3)CN2Cc2c(F)cccc2OC)c1` [N-{(3R,6S)-1-(2-fluoro-6-methoxybenzyl)-6-[(4-methoxypyridin-2-yl)carbamoyl]piperidin-3-yl}-3-(2-methylpyridin-4-yl)-1H-indazole-5-carboxamide], the pIC50 under setting [2] was 7.30.

Turning to `COc1cccc(F)c1CN1C[C@H](NC(=O)c2ccc3[nH]nc(-c4ccnc(C)c4)c3c2)CC[C@H]1C(=O)N1CCN(C)CC1` [N-{(3R,6S)-1-(2-fluoro-6-methoxybenzyl)-6-[(4-methylpiperazin-1-yl)carbonyl]piperidin-3-yl}-3-(2-methylpyridin-4-yl)-1H-indazole-5-carboxamide], the pIC50 under setting [1] is 7.49.

On to `COc1cccc(F)c1CN1C[C@H](NC(=O)c2ccc3[nH]nc(-c4ccnc(C)c4)c3c2)CC[C@H]1C(=O)Nc1ccc(C)nc1` [N-{(3R,6S)-1-(2-fluoro-6-methoxybenzyl)-6-[(6-methylpyridin-3-yl)carbamoyl]piperidin-3-yl}-3-(2-methylpyridin-4-yl)-1H-indazole-5-carboxamide], for which the pIC50 under setting [2] is 8.17.

`COc1cccc(F)c1CN1C[C@H](NC(=O)c2ccc3[nH]nc(-c4ccnc(C)c4)c3c2)CC[C@H]1C(=O)N(C)OC` [N-{(3R,6S)-1-(2-fluoro-6-methoxybenzyl)-6-[methoxy(methyl)carbamoyl]piperidin-3-yl}-3-(2-methylpyridin-4-yl)-1H-indazole-5-carboxamide]: the pIC50 under setting [1] is 7.95.
